This test has as its system β-amyloid peptide formation in human H4 cells. Kind of test: Inhibition of β-amyloid peptide (Aβ) formation in H4 cells overexpressing HPLAP-APP fusion protein. The format is cell-based. The protocol:
γ-Secretase inhibitors were also evaluated using in vitro assays based on the inhibition of Aβ formation in cultured cells. Cultured human cell lines, such as HEK293 and H4 cells, which express APP and γ-secretase activity or transfected derivative cell lines that overexpress wild-type APP, mutant APP, or APP fusion proteins will secrete Aβ peptides into the culture media that can be quantified as previously outlined (Dovey, H. et al., J. Neurochem. 2001, 76, 173). The incubation of these cultured cells with γ-secretase inhibitors decreases the production of Aβ peptides. For instance, H4 cells stably transfected to overexpress the HPLAP-APP fusion protein described above were grown as above, detached, and adjusted to 2×10^5 cells/ml. 100 μl of the resulting suspension was then added to each well of a 96-well plate. After 4 hrs, the media was removed and replaced with 100 μl serum-free media containing various dilutions of the test compound. Plates were then incubated for 18 hrs at 37° C. and a 100 μl aliquot of the tissue culture supernatant was removed for determination of Aβ levels using time-resolved fluorescence of the homogenous sample as outlined above. The extent of Aβ inhibition was used to calculate the IC50 value for the test compound.
Representative compounds were evaluated in the above assay and were determined to inhibit Aβ formation.

Setting [1] is: class symbol, read-out: Binding affinity (IC50 in nM), activity class.
Setting [2] is: number in parentheses, read-out: Binding affinity (IC50 in nM).

Read-outs that look alike come from different tables or passages of the source.

As usually defined, the IC50 is the concentration needed to halve the response being measured. For the compound `NC(=O)C(c1cc(F)cc(F)c1)N(Cc1ccc(-c2ncon2)cc1)S(=O)(=O)c1ccc(Cl)cc1` (stereo not drawn) [Example 19], the IC50 under setting [1] fell in the range of 0.25 to 50 nM. Consider `N#Cc1ccc(CN(C(C(N)=O)c2cc(F)cc(F)c2)S(=O)(=O)c2ccc(Cl)cc2)cc1` (stereo not drawn) [Example 16, α-[(4-Chlorobenzenesulfonyl)(4-cyanophenylmethyl)amino]-3,5-difluorobenzene-acetamide], for which the IC50 by setting is: under setting [1], 0.25 to 50 nM; under setting [2], 12.4 nM. As for `CCNC(=O)c1ccc(CN(C(C(N)=O)c2cc(F)cc(F)c2)S(=O)(=O)c2ccc(Cl)cc2)cc1` (stereo not drawn) [Example 3, α-[(4-Chlorobenzenesulfonyl)((4-ethylaminocarbonylphenyl)methyl)amino]-3,5-difluorobenzeneacetamide], the IC50 under setting [1] was 0.25 to 50 nM and the IC50 under setting [2] was found to be 1.28 nM. The corresponding values for `NC(=O)C(c1cc(F)cc(F)c1)N(Cc1ccc(C(=O)O)cc1)S(=O)(=O)c1ccc(Cl)cc1` (stereo not drawn) [Example 2, α-[(4-Chlorobenzenesulfonyl)((4-carboxyphenyl)methyl)amino]-3,5-difluorobenzene-acetamide] are 50 to 500 nM and 116 nM. Turning to `NC(=O)C(c1cc(F)cc(F)c1)N(Cc1ccc(-n2cncn2)cc1)S(=O)(=O)c1ccc(Cl)cc1` (stereo not drawn) [Example 11, α-[(4-Chlorobenzenesulfonyl)(4-(1,2,4-triazolyl)-phenylmethyl)amino]-3,5-difluorobenzene-acetamide], the IC50 under setting [1] was in the range of 0.25 to 50 nM.

In the case of `CC(C)(C)OC(=O)c1ccc(CN(C(C(N)=O)c2cc(F)cc(F)c2)S(=O)(=O)c2ccc(Cl)cc2)cc1` (stereo not drawn) [Example 1, α-[(4-Chlorobenzenesulfonyl)((4-t-butyloxycarbonylphenyl)methyl)amino]-3,5-difluorobenzeneacetamide], the IC50 under setting [1] lay within 0.25 to 50 nM. For `CCNC(=O)c1ccc(CN(C(C(N)=O)c2ccccc2C)S(=O)(=O)c2ccc(Cl)cc2)cc1` (stereo not drawn) [Example 31, α-[(4-Chlorobenzenesulfonyl)((4-ethylaminocarbonylphenyl)methyl)amino]-2-methylbenzene-acetamide], the IC50 is 50 to 500 nM under setting [1] and 127 nM under setting [2]. For `NC(=O)C(c1cc(F)cc(F)c1)N(Cc1ccc(F)cc1)S(=O)(=O)c1ccc(Cl)cc1` (stereo not drawn) [Example 14, α-[(4-Chlorobenzenesulfonyl)(4-fluorophenylmethyl)amino]-3,5-difluorobenzene-acetamide], the IC50 under setting [1] lay within 0.25 to 50 nM. As for `NC(=O)C(c1cc(F)cc(F)c1)N(Cc1ccc(C(=O)NC2CCC2)cc1)S(=O)(=O)c1ccc(Cl)cc1` (stereo not drawn) [Example 8], the IC50 is 0.25 to 50 nM under setting [1] and 0.93 nM under setting [2]. For the compound `NC(=O)C(c1cc(F)cc(F)c1)N(Cc1ccc(-n2cccn2)cc1)S(=O)(=O)c1ccc(Cl)cc1` (stereo not drawn) [Example 12, α-[(4-Chlorobenzenesulfonyl)(4-pyrazolylphenylmethyl)amino]-3,5-difluorobenzene-acetamide], the IC50 under setting [1] was 0.25 to 50 nM and the IC50 under setting [2] worked out at 9.15 nM. As to `CC(C)(C)NC(=O)c1ccc(CN(C(C(N)=O)c2cc(F)cc(F)c2)S(=O)(=O)c2ccc(Cl)cc2)cc1` (stereo not drawn) [Example 4, α-[(4-Chlorobenzenesulfonyl)(4-t-butylaminocarbonylphenylmethyl)amino]-3,5-difluorobenzeneacetamide], the IC50 under setting [1] was in the range of 0.25 to 50 nM. Take `CNC(=O)c1ccc(CN(C(C(N)=O)c2cc(F)cc(F)c2)S(=O)(=O)c2ccc(Cl)cc2)cc1` (stereo not drawn) [Example 6, α-[(4-Chlorobenzenesulfonyl)(4-methylaminocarbonylphenylmethyl)amino]-3,5-difluorobenzene-acetamide]: under setting [1], the IC50 was in the range of 0.25 to 50 nM. As to `Cc1nc(-c2ccc(CN(C(C(N)=O)c3cc(F)cc(F)c3)S(=O)(=O)c3ccc(Cl)cc3)cc2)no1` (stereo not drawn) [Example 18], the IC50 under setting [1] is 0.25 to 50 nM. Same read-out and setting: to `CCN1CCc2cc(CN(C(C(N)=O)c3cc(F)cc(F)c3)S(=O)(=O)c3ccc(Cl)cc3)ccc2C1=O` (stereo not drawn) [Example 9, α-[(4-Chlorobenzenesulfonyl)(1-oxo-2-ethyl-1,2,3,4-tetrahydroisoquinolin-6-ylmethyl)amino]-3,5-difluorobenzeneacetamide] belongs 0.25 to 50 nM; to `NC(=O)C(c1cc(F)cc(F)c1)N(Cc1ccc(C(=O)N2CCC2)cc1)S(=O)(=O)c1ccc(Cl)cc1` (stereo not drawn) [Example 5, α-[(4-Chlorobenzenesulfonyl)(4-azetidinylcarbonylphenylmethyl)amino]-3,5-difluorobenzene-acetamide], 0.25 to 50 nM.

(Values after US20110059940A1, “2-Aryl Glycinamide Derivatives” (Bristol- Myers Squibb Company, priority 2008, published 2011).)
